Test results from patent US6306860A, “2,5-pyridinedicarboxylic acid derivatives” (Dong Wha Pharm. Inc. Co., Ltd., priority 1998, dated 2001).
Where a name gives a salt, the structure may show the parent alone.

Tests used:
[1] = biological target: T1, HIV reverse transcriptase (Human immunodeficiency virus type 1 group M subtype B, UniProt P04585); experiment: In vitro inhibition test against HIV reverse transcriptase; type: biochemical; details: read-out: Inhibitory activity of HIV-RT (%); for inhibition at 0.1 µg/mL: 0.1 μg/ml; for inhibition at 1 µg/mL: 1 μg/ml
T1 construct: purchased Boehringer Mannheim
Protocol: Experiment 2: The in vitro Inhibition Test Against HIV Reverse Transcriptase
The inhibitory activity in vitro was measured using a non-radioactive reverse transcriptase assay Kit (Boehringer Mannheim).
At first, 20 μl(40 ng) of HIV-RT was added to the wells, coated with streptavidin and with the addition of 20 μl reaction mixture containing template/primer hybrid poly(A)/oligo(dT)15 and DIG-(digoxigenin)-dUTP, biotin-dUTP and TTP, 20 μl of test compound was added and reacted at 37° C. for 1 hour. The control without test compound was used for the comparison of related activity. Since DNA containing nucleotide labeled with digoxigenin and biotine was prepared by the action of HIV-RT, it was combined with streptavidin coated at the bottom of the wells. After the reaction was completed, remaining impurities were removed by washing each well with 250 μl buffer solution (pH 7.0) for 30 seconds 5 times and with the addition of 200 μl anti-DIG-POD antibody, the mixture was reacted at 37° C. for 1 hour. For the removal of remaining impurities again, the reacting solution was washed with a buffer solution and with the addition of 200 μl ABTS™ each, a substrate of POD(peroxidase), the solution was reacted at room temperature for 30 minutes. The absorbance was read by ELISA reader at 405 nm for the assay of reverse transcriptase activity and its inhibition activity.

HBV polymerase = biological target: T2, HBV polymerase (Hepatitis B virus genotype D subtype ayw, UniProt P03156); experiment: Inhibitory activities against HBV polymerase (reverse transcriptase activity) in vitro; type: biochemical; details: read-out: Inhibitory activity of HBV-RT (%); for inhibition at 0.01 µg/mL: 0.01 μg/ml; for inhibition at 0.1 µg/mL: 0.1 μg/ml; for inhibition at 1 µg/mL: 1 μg/ml
T2 construct: made in house; host or cells: E. coli
Text: Experiment 1:Inhibitory Activities Against HBV Polymerase in vitro
Recently, the inventors of the present invention have produced a recombinant HBV polymerase that is expressed from E.coli transformant, measured its enzyme activity and filed patent applications threrof [Korean Pat. Appl. Nos. 94-3918 and 96-33998].
The inventors have also established a method of measuring the reverse transcriptase activity of HBV polymerase in vitro. The fundamental principle is the same as the ELISA method, and after reacting the substrate with biotin- and DIG-modified nucleotide, a method of recognizing the polymerized substrate as anti-DIG antibody with peroxidase was used.
20 μl of HBV polymerase, 20 μl of reaction mixture and 20 μl of test compound was mixed and reacted at 14° C.~30° C. for 18~24 hours. Then, the inhibitory effect of the test compound against reverse transcriptase activity in the HBV polymerase was examined, compared with the results of control tests without the test compound.

T2 sequence (P03156 whole entry): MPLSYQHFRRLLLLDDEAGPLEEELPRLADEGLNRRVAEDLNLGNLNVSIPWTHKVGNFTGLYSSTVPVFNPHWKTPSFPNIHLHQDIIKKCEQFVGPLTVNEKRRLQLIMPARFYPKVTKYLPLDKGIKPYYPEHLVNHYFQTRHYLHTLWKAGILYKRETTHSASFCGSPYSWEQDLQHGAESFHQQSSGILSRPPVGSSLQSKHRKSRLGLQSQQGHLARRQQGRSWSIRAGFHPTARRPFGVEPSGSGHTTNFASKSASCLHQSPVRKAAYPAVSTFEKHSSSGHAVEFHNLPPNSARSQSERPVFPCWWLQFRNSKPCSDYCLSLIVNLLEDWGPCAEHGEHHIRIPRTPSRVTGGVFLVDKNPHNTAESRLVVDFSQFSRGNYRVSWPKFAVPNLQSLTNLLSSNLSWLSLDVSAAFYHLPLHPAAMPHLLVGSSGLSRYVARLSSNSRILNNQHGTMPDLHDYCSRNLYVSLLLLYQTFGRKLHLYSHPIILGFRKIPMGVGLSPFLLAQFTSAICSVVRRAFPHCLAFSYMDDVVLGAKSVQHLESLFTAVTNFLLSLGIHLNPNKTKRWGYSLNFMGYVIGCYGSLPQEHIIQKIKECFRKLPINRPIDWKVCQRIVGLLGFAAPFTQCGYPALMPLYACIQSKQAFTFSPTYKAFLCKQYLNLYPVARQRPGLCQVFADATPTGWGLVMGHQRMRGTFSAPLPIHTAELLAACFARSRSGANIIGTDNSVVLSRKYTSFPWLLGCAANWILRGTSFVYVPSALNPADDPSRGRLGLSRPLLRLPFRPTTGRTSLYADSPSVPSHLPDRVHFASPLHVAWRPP

SMILES	inhibition at 0.1 µg/mL [1] [%]	inhibition at 1 µg/mL [1] [%]	inhibition at 0.01 µg/mL (HBV polymerase) [%]	inhibition at 0.1 µg/mL (HBV polymerase) [%]	inhibition at 1 µg/mL (HBV polymerase) [%]
CCN(CC)C(=O)c1ccc(C(=O)N2CCN(c3ncccc3NC(C)C)CC2)nc1 [Exam. 33, 5-(N,N-diethylcarbamoyl)-2-[1-[3-(isopropylamino)-2-pyridyl]piperazin-4-yl-carbonyl]pyridine]	64	80	20	62	73
CC(C)Nc1cccnc1N1CCN(C(=O)c2ccc(C(=O)NC3CC3)cn2)CC1 [Exam. 35, 5-(N-cyclopropylcarbamoyl)-2-[1-[3-(isopropylamino)-2-pyridyl]piperazin-4-yl-carbonyl]pyridine]	30	68	5	51	62
CC(C)CNc1cccnc1N1CCN(C(=O)c2ccc(C(=O)NC3CC3)cn2)CC1 [Exam. 36]	60	73	60	71	87
CC(C)Nc1cccnc1N1CCN(C(=O)c2ccc(C(=O)NC3CCCC3)cn2)CC1 [Exam. 37, 5-(N-cyclopentylcarbamoyl)-2-[1-[3-(isopropylamino)-2-pyridyl]piperazin-4-yl-carbonyl]pyridine]	25	51	39	65	75
COCCNC(=O)c1ccc(C(=O)N2CCN(c3ncccc3NC(C)C)CC2)nc1 [Exam. 39, 2-[1-[3-(isopropylamino)-2-pyridyl]piperazin-4-yl-carbonyl]-5-[N-(2-methoxyethyl)carbamoyl]pyridine]	65	72	60	68	80
CCNc1cccnc1N1CCN(C(=O)c2ccc(C(=O)NCCOC)cn2)CC1 [Exam. 40, 2-[1-[3-(ethylamino)-2-pyridyl]piperazin-4-yl-carbonyl]-5-[N-(2-methoxyethyl)carbamoyl]-pyridine]	52	70	36	57	75
COCCNC(=O)c1ccc(C(=O)N2CCN(c3ncccc3NCC(C)C)CC2)nc1 [Exam. 41, 2-[1-[3-(isobutylamino)-2-pyridyl]piperazin-4-yl-carbonyl]-5-[N-(2-methoxyethyl)carbamoyl]-pyridine]	34	55	52	70	85
COCCN(CCOC)C(=O)c1ccc(C(=O)N2CCN(c3ncccc3NC(C)C)CC2)nc1 [Exam. 42, 5-[N,N-bis(2-methoxyethyl)carbamoyl]-2-[1-[3-(isopropylamino)-2-pyridyl]piperazin-4-yl-carbonyl]pyridine.HCl]	20	54	15	52	70
COCC(C)NC(=O)c1ccc(C(=O)N2CCN(c3ncccc3NC(C)C)CC2)nc1 (stereo not shown) [Exam. 43, 2-[1-[3-(isopropylamino)-2-pyridyl]piperazin-4-yl-carbonyl]-5-[N-(2-methoxy-1-methylethyl)carbamoyl]pyridine]	44	56	50	61	68
COCCCNC(=O)c1ccc(C(=O)N2CCN(c3ncccc3NC(C)C)CC2)nc1 [Exam. 45, 2-[1-[3-(isopropylamino)-2-pyridyl]piperazin-4-yl-carbonyl]-5-[N-(3-methoxypropyl)carbamoyl]pyridine]	47	68	28	53	63
COCCCNC(=O)c1ccc(C(=O)N2CCN(c3ncccc3NCC(C)C)CC2)nc1 [Exam. 47, 2-[1-[3-(isobutylamino)-2-pyridyl]piperazin-4-yl-carbonyl]-5-[N-(3-methoxypropyl)carbamoyl]pyridine]	53	69	20	51	72
CC(C)Nc1cccnc1N1CCN(C(=O)c2ccc(C(=O)NCCOCCO)cn2)CC1 [Exam. 48, 5-[N-[2-(2-hydroxyethoxy)ethyl]carbamoyl]-2-[1-[3-(isopropylamino)-2-pyridyl]piperazin-4-yl-carbonyl]pyridine]	41	52	52	66	79
COC(CN(C)C(=O)c1ccc(C(=O)N2CCN(c3ncccc3NC(C)C)CC2)nc1)OC [Exam. 50, 5-[N-(2,2-dimethoxyethyl)-N-methylcarbamoyl]-2-[1-[3-(isopropylamino)-2-pyridyl]piperazin-4-yl-carbonyl]pyridine.HCl]	40	55	15	51	60
COC(CNC(=O)c1ccc(C(=O)N2CCN(c3ncccc3NC(C)C)CC2)nc1)OC [Exam. 51, 5-[N-(2,2-dimethoxyethyl)carbamoyl]-2-[1-[3-(isopropylamino)-2-pyridyl]piperazin-4-yl-carbonyl]pyridine]	30	51	57	65	87
CC(C)Nc1cccnc1N1CCN(C(=O)c2ccc(C(=O)N(C)CC3OCCO3)cn2)CC1 [Exam. 52, 5-[N-[(1,3-Dioxolan-2-yl)methyl]-N-methylcarbamoyl]-2-[1-[3-(isopropylamino)-2-pyridyl]piperazin-4-yl-carbonyl]pyridine]	50	62	39	60	76
CC(C)Nc1cccnc1N1CCN(C(=O)c2ccc(C(=O)NCC3CCCO3)cn2)CC1 (stereo not shown) [Exam. 53, 2-[1-[3-(isopropylamino)-2-pyridyl]piperazin-4-yl-carbonyl]-5-[N-(tetrahydrofuran-2-yl-methyl)carbamoyl]pyridine]	59	78	52	60	74
CC(C)Nc1cccnc1N1CCN(C(=O)c2ccc(C(=O)NC3CCOC3=O)cn2)CC1 (stereo not shown) [Exam. 55, 2-[1-[3-(Isopropylamino)-2-pyridyl]piperazin-4-yl-carbonyl]-5-[N-(tetrahydro-2-fuanon-3-yl)carbamoyl]pyridine]	31	62	55	69	79
Nc1cccnc1N1CCN(C(=O)c2ccc(C(=O)NC3CCOC3=O)cn2)CC1 (stereo not shown) [Exam. 56, 2-[1-(3-amino-2-pyridyl)piperazin-4-yl-carbonyl]-5-[N-(tetrahydro-2-furanon-3-yl)carbamoyl]pyridine]	45	74	65	70	82
CC(C)Nc1cccnc1N1CCN(C(=O)c2ccc(C(=O)NC3CCSC3=O)cn2)CC1 (stereo not shown) [Exam. 57, 2-[1-[3-(isopropylamino)-2-pyridyl]piperazin-4-yl-carbonyl]-5-[N-(tetrahydro-2-thiophenon-3-yl)carbamoyl]pyridine]	61	70	23	53	72
CC(C)Nc1cccnc1N1CCN(C(=O)c2ccc(C(=O)NCCCN3CCCC3=O)cn2)CC1 [Exam. 58, 2-[1-[3-(isopropylamino)-2-pyridyl]piperazin-4-yl-carbonyl]-5-[N-[3-(2-pyrrolidinon-1-yl)propyl]carbamoyl]pyridine.HCl]	45	63	63	72	84
